Laboratory results from article PMC6704710, “Preclinical evaluation of 3D185, a novel potent inhibitor of FGFR1/2/3 and CSF-1R, in FGFR-dependent and macrophage-dominant cancer models” (Journal of Experimental & Clinical Cancer Research : CR, 2019).

Columns and labels:
Assay in all cases: Eurofins kinase panel
Format in all cases: biochemical
Settings in all cases: read-out: Inhibition rate (%)
NEK3(h) = molecular target: T1, NEK3(h) (Homo sapiens, UniProt P51956)
T1 construct: purchased Eurofins (KinaseProfiler)
T1 sequence (P51956 1-506): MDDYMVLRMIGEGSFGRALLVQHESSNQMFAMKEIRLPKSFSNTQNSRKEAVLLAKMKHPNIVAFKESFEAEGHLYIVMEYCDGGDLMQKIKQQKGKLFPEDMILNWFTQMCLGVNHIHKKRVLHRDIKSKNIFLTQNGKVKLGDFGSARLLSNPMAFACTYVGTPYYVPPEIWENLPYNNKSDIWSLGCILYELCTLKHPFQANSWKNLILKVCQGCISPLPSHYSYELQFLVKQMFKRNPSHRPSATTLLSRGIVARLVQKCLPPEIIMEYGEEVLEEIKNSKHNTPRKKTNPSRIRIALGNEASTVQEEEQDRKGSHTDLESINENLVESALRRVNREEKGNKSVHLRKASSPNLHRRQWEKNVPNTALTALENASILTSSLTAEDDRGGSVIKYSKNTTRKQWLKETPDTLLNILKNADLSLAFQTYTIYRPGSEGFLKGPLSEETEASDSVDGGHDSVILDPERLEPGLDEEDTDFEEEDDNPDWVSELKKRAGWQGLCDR

TAK1(h) = molecular target: T2, TAK1(h) (Homo sapiens, UniProt O43318)
T2 construct: purchased Eurofins (KinaseProfiler)
T2 sequence (O43318 1-303 limits assumed): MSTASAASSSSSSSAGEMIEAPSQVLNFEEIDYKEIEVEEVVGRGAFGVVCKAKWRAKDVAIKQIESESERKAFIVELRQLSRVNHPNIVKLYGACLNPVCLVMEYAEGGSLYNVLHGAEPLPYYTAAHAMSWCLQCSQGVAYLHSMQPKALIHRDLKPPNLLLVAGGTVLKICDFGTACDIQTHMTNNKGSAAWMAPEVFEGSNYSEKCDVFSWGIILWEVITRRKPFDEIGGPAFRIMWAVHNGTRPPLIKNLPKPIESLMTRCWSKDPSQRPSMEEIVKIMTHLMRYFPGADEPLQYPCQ

PDK1(h) = molecular target: T3, PDK1(h) (Homo sapiens, UniProt O15530)
T3 construct: purchased Eurofins (KinaseProfiler)
T3 sequence (O15530 1-556): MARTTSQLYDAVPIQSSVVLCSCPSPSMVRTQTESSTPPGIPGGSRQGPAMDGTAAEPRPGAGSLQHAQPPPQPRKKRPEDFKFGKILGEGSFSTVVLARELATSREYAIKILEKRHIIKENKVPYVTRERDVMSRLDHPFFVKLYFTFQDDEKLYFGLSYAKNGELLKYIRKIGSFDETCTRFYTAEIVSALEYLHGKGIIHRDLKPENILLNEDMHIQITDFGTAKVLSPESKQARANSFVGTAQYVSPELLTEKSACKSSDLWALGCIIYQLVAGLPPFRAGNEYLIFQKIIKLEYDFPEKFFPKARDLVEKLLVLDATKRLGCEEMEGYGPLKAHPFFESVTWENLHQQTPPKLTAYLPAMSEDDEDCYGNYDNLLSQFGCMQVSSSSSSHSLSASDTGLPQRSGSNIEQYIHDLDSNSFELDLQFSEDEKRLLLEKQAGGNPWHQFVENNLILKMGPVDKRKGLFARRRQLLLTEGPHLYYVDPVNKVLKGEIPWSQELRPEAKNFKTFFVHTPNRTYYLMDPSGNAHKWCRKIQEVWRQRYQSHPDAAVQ

HIPK3(h) = molecular target: T4, HIPK3(h) (Homo sapiens, UniProt Q9H422)
T4 construct: purchased Eurofins (KinaseProfiler)

Fgr(h) = molecular target: T5, Fgr(h) (Homo sapiens, UniProt P09769)
T5 construct: purchased Eurofins (KinaseProfiler)

EphB4(h) = molecular target: T6, EphB4(h) (Homo sapiens, UniProt P54760)
T6 construct: purchased Eurofins (KinaseProfiler)
T6 sequence (P54760 16-987): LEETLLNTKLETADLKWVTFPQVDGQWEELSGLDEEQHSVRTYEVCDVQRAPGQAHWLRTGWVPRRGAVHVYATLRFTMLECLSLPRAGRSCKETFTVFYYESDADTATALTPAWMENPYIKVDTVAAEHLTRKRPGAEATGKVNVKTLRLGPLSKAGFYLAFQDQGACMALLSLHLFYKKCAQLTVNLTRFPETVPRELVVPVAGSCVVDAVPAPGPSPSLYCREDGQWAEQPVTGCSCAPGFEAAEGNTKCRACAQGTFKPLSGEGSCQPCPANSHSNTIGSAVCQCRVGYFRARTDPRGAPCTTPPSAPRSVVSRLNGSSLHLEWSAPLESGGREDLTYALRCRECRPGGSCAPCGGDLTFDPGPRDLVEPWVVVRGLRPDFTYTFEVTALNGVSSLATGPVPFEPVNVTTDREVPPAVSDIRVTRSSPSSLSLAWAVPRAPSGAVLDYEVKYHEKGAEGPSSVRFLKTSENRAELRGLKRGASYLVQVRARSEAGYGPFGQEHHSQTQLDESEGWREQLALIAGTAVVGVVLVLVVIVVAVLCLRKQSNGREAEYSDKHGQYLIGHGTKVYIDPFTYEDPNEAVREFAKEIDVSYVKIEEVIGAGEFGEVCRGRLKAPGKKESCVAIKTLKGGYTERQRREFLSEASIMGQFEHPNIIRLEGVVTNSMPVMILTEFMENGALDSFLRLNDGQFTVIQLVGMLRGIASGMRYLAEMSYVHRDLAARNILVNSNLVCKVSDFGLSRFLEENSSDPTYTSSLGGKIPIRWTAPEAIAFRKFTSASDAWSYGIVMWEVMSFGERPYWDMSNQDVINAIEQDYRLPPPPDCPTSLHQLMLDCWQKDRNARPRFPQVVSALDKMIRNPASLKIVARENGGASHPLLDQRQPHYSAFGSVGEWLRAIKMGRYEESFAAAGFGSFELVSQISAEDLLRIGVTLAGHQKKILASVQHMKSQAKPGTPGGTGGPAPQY

T5 sequence (P09769 whole entry): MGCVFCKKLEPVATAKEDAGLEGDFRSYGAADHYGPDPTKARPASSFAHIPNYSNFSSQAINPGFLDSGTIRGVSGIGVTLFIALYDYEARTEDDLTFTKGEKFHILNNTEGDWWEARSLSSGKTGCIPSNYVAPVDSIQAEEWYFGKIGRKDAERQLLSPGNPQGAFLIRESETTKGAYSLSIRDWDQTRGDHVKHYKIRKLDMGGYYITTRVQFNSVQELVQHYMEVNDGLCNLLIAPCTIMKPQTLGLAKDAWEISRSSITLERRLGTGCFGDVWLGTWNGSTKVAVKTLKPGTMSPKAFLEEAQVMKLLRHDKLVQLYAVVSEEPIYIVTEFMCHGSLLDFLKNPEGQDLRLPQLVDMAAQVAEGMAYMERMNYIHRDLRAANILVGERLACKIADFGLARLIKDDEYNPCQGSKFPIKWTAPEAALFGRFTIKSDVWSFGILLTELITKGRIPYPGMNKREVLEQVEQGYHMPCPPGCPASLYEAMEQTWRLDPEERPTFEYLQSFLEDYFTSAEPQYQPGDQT
T4 sequence (Q9H422 whole entry): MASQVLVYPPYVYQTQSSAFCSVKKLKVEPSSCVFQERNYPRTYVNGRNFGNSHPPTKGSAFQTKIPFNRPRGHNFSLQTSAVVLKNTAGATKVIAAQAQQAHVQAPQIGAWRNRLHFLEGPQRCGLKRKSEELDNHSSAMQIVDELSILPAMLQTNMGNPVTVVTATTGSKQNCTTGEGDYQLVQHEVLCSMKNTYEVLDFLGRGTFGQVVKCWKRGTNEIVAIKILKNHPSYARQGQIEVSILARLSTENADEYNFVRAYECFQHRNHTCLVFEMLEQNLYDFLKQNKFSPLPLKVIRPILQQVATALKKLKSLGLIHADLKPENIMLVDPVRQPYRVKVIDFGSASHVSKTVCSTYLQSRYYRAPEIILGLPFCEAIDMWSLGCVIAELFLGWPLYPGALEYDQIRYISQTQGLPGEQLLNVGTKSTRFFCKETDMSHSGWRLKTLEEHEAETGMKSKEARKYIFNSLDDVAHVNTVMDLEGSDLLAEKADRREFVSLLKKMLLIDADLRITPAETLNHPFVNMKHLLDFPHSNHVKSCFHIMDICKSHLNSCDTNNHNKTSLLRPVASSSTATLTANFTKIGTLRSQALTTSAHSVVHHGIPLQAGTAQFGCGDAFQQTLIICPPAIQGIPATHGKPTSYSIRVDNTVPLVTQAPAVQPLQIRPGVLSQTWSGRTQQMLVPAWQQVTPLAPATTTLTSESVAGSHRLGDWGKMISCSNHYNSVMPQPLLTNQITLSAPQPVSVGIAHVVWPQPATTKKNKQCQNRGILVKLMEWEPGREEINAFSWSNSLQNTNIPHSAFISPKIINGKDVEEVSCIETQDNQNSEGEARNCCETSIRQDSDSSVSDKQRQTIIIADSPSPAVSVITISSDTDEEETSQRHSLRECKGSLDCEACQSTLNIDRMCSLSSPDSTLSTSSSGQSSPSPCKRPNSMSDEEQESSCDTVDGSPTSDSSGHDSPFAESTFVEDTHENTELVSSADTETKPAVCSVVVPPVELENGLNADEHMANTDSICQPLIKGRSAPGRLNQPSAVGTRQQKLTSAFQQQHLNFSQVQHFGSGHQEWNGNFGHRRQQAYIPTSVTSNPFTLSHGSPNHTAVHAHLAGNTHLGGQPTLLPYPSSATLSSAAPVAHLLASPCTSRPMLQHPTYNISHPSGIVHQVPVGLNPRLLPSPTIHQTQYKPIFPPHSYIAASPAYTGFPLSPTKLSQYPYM

Molecule `COc1cc(OC)c(Cl)c(-c2ccc3c(NC(=O)c4ccc(N5CCNC(C)(C)C5)cc4)n[nH]c3n2)c1Cl` [3D185] has an inhibition at 0.01 µM (NEK3(h); 10 nM) of 10%, an inhibition at 0.1 µM (NEK3(h); 100 nM) of 13% and an inhibition at 1 µM (NEK3(h); 1000 nM) of 5%. For the same molecule, the inhibition at 0.01 µM (TAK1(h); 10 nM) was -6%, the inhibition at 0.1 µM (TAK1(h); 100 nM) was 11% and the inhibition at 1 µM (TAK1(h); 1000 nM) was 13%. For the same molecule, the inhibition at 0.01 µM (PDK1(h); 10 nM) was -5%, the inhibition at 0.1 µM (PDK1(h); 100 nM) was -14% and the inhibition at 1 µM (PDK1(h); 1000 nM) was -4%. It also gave an inhibition at 0.01 µM (HIPK3(h); 10 nM) of -2%, an inhibition at 0.1 µM (HIPK3(h); 100 nM) of -12% and an inhibition at 1 µM (HIPK3(h); 1000 nM) of -8%. The inhibition at 0.01 µM (Fgr(h); 10 nM) was 11%, the inhibition at 0.1 µM (Fgr(h); 100 nM) was 44% and the inhibition at 1 µM (Fgr(h); 1000 nM) was 89%. It also gave an inhibition at 0.01 µM (EphB4(h); 10 nM) of 8%, an inhibition at 0.1 µM (EphB4(h); 100 nM) of -5% and an inhibition at 1 µM (EphB4(h); 1000 nM) of 2%.
